Like-named read-outs stand apart in the source and are kept apart here.
Experiments:
Assay type in all cases: biochemical
MMP-1 = biological target: T1, MMP-1 (Homo sapiens, UniProt P03956); assay: MMP-1 inhibition (thiopeptide or fluorescent peptide substrate)
T1 sequence (P03956 100-469): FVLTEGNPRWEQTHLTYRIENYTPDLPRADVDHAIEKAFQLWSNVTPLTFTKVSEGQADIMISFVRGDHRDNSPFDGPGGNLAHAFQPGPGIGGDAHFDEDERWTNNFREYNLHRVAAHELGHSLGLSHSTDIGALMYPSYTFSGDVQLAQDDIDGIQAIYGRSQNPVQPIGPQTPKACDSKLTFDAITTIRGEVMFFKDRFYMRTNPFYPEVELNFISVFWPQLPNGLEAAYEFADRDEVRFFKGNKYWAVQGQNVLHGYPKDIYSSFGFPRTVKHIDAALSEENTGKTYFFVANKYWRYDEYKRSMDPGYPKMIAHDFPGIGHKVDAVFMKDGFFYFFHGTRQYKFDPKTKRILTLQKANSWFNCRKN

[1] = biological target: TNF-α converting enzyme (TACE) (Homo sapiens, UniProt P78536); assay: TACE inhibition (fluorescent peptidyl substrate)
MMP-13 = MMP-13 (Homo sapiens, UniProt P45452); assay: MMP-13 inhibition (thiopeptide or fluorescent peptide substrate); details: read-out: MMP-13 IC50
[2] = IC 50 nM (In Vitro Inhibition of TACE), Table 15
[3] = read-out: IC 50 nM (In Vitro Inhibition of TACE), Table 15

Sequence of TNF-α converting enzyme (TACE) (P78536 215-824, species assumed): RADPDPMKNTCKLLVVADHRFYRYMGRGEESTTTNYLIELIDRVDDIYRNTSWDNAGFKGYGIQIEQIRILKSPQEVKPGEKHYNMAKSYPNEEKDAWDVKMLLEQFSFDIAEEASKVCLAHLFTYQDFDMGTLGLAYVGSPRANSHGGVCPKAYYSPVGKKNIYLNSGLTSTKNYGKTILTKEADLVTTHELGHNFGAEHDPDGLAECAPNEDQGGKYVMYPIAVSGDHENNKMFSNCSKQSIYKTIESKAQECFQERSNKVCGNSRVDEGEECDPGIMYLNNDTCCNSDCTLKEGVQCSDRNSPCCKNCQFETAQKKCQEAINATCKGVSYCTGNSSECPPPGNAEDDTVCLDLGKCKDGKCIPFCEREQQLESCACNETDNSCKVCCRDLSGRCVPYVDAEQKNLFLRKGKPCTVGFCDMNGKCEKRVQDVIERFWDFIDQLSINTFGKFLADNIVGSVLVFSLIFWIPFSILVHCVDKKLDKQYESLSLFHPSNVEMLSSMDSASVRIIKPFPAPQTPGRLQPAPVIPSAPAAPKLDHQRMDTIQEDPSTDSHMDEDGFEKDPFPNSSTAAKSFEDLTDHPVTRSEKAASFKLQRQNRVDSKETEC

| Molecule | IC50 (MMP-1; read-out: MMP-1 IC50) | IC50 ([1]; read-out: TACE IC50) | IC50 (MMP-13) | IC50 [1, 2] | further results |
| --- | --- | --- | --- | --- | --- |
| CC#CCOc1ccc(S(=O)(=O)N(C)C(C(=O)NO)C(C)C)cc1 (stereo not shown) [Example 9, 2-[(4-but-2-ynyloxy-Benzenesulfonyl)-methyl-amino]-N-hydroxy-3-methyl-butyramide] | 40 nM | 7.4 nM | 4.5 nM |  |  |
| CC#CCOc1ccc(S(=O)(=O)N(C)C(CSCc2cccnc2)C(=O)NO)cc1 (stereo not shown) [Example 155, 2-[(4-but-2-ynyloxy-Benenesulfonyl)-methyl-amino]-N-hydroxy-3-(pyridin-3-ylmethylsulfanyl)-butyramide] |  |  | 4.8 nM |  |  |
| CC#CCOc1ccc(S(=O)(=O)N2CCCSC(C)(C)[C@@H]2C(=O)NO)cc1 [Example 173] | 20 nM | 111 nM | 16 nM |  |  |
| CC#CCOc1ccc(S(=O)(=O)N2CCCSC[C@@H]2C(=O)NO)cc1 [Example 174] | 408 nM | 20 nM | 36 nM |  |  |
| CC#CCOc1ccc(S(=O)(=O)N2CCCS(=O)(=O)C[C@@H]2C(=O)NO)cc1 [Example 175] | 1030 nM | 28 nM | 50 nM |  |  |
| CC#CCOc1ccc(S(=O)(=O)NC(C(=O)NO)c2ccc(OCCNC)cc2)cc1 (stereo not shown) [Example 204] |  |  |  |  | IC50 (MMP-1; MMP-1 IC50): ~10000 nM |
| CC#CCOc1ccc(S(=O)(=O)NC(C(=O)NO)c2ccc(OCCN3CCCC3)cc2)cc1 (stereo not shown) [Example 205, 2-({[4-(2-Butynyloxy)phenyl]sulfonyl}amino)-N-hydroxy-2-{4-[2-(1-pyrrolidinyl)ethoxy]phenyl}acetamide] | ~10000 nM | 24 nM | 146 nM |  |  |
| CC#CCOc1ccc(S(=O)(=O)NC(C(=O)NO)c2ccc(OCCN(C)C)cc2)cc1 (stereo not shown) [Example 207, 2-({[4-(2-Butynyloxy)phenyl]sulfonyl}amino){4-[2-(dimethylamino)ethoxy]phenyl}-N-hydroxyacetamide] | > 10000 nM | 53 nM | 112 nM |  |  |
| CC#CCOc1ccc(S(=O)(=O)NC(C(=O)NO)c2ccc(OCCc3scnc3C)cc2)cc1 (stereo not shown) [Example 208, 2-({[4-(2-Butynyloxy)phenyl]sulfonyl}amino)-N-hydroxy-2-{4-[2-(4-methyl-1,3-thiazol-5-yl)ethoxy]phenyl}acetamide] | > 10000 nM | 69 nM | 230 nM |  |  |
| CC#CCOc1ccc(S(=O)(=O)NC(C(=O)NO)c2ccc(OCCOCCOCCOC)cc2)cc1 (stereo not shown) [Example 209, 2-({[4-(2-Butynyloxy)phenyl]sulfonyl}amino)-N-hydroxy-2-(4-{2-[2-(2-methoxyethoxy)ethoxy]ethoxy}phenyl)acetamide] | ~10000 nM | 39 nM | 132 nM |  |  |
| CC#CCOc1ccc(S(=O)(=O)NC(C(=O)NO)c2ccc(OCCOCCOC)cc2)cc1 (stereo not shown) [Example 210, 2-({[4-(2-Butynyloxy)phenyl]sulfonyl}amino)-N-hydroxy-2-{4-[2-(2-methoxyethoxy)ethoxy]phenyl}acetamide] | > 10000 nM | 17 nM | 278 nM |  |  |
| CC#CCOc1ccc(S(=O)(=O)N2CCSC3(CCN(Cc4ccccc4)CC3)C2C(=O)NO)cc1 (stereo not shown) [Example 241, 9-Benzyl-4-{[4-(2-butynyloxy)phenyl]sulfonyl}-N-hydroxy-1-thia-4,9-diazaspiro[5.5]undecane-5-carboxamide] |  |  |  |  | IC50 (MMP-1; Table 9, read-out: MMP-1 IC50): 3.1 nM; IC50 ([1]; Table 9, read-out: TACE IC50): 786 nM; IC50 (MMP-13; Table 9): 0.5 nM |
| CC(C)(C)OC(=O)NCCCCC#CCOc1ccc(S(=O)(=O)N2CCSC(C)(C)[C@@H]2C(=O)NO)cc1 [Example 252, tert-Butyl 7-[4-({(3S)-3-[(Hydroxyamino)carbonyl]-2,2-dimethylthiomorpholinyl}sulfonyl)phenoxy]-5-heptynylcarbamate] |  |  |  |  | IC50 (MMP-1; Table 10, read-out: MMP-1 IC50): 87 nM; IC50 ([1]; Table 10, read-out: TACE IC50): 199 nM; IC50 (MMP-13; Table 10): 4.3 nM |
| CC1(C)SCCN(S(=O)(=O)c2ccc(OCC#CCCCCN)cc2)[C@H]1C(=O)NO [Example 253] |  |  |  |  | IC50 (MMP-1; Table 10, read-out: MMP-1 IC50): 92 nM; IC50 ([1]; Table 10, read-out: TACE IC50): 40 nM; IC50 (MMP-13; Table 10): 7.3 nM |
| CC1(C)SCCN(S(=O)(=O)c2ccc(OCC#Cc3ccccc3)cc2)[C@H]1C(=O)NO [Example 254, (3S)-N-Hydroxy-2,2-dimethyl-4-({4-[(3-phenyl-2-propynyl)oxy]phenyl}sulfonyl)-3-thiomorpholine Carboxamide] |  |  |  |  | IC50 (MMP-1; Table 10, read-out: MMP-1 IC50): 13 nM; IC50 ([1]; Table 10, read-out: TACE IC50): 173 nM; IC50 (MMP-13; Table 10): 11 nM |
| C#CCOc1ccc(S(=O)(=O)N2CCSC(C)(C)[C@@H]2C(=O)NO)cc1 [Example 258, (3S)-N-Hydroxy-2,2-dimethyl-4-{[4-(2-propynyloxy)phenyl]sulfonyl}-3-thiomorpholine Carboxamide] |  |  |  |  | IC50 (MMP-1; Table 9, read-out: MMP-1 IC50): 0.6 nM; IC50 ([1]; Table 9, read-out: TACE IC50): 19 nM; IC50 (MMP-13; Table 9): 0.8 nM |
| CCC#CCOc1ccc(S(=O)(=O)N2CCSC(C)(C)[C@@H]2C(=O)NO)cc1 [Example 259, (3S)-N-Hydroxy-2,2-dimethyl-4-{[4-(2-pentynyloxy)phenyl]sulfonyl}-3-thiomorpholine Carboxamide] |  |  |  |  | IC50 (MMP-1; Table 9, read-out: MMP-1 IC50): 5.9 nM; IC50 ([1]; Table 9, read-out: TACE IC50): 28 nM; IC50 (MMP-13; Table 9): 5 nM |

| Molecule | IC50 (MMP-1; read-out: MMP-1 IC50) | IC50 ([1]; read-out: TACE IC50) | IC50 (MMP-13) | IC50 [1, 2] | further results |
| --- | --- | --- | --- | --- | --- |
| CC#CCOc1ccc(S(=O)(=O)N2CCN(C(=O)OC(C)(C)C)CCC2C(=O)NO)cc1 (stereo not shown) [Example 291, tert-Butyl 4-{[4-(2-Butynyloxy)phenyl]sulfonyl}-5[(hydroxyamino)carbonyl]-1,4-diazepane-1-carboxylate] | 92 nM | 74 nM |  |  |  |
| CC#CCOc1ccc(S(=O)(=O)N[C@H](CCCCNC(=O)c2cnc3ccccc3c2)C(=O)NO)cc1 [Example 364, N-[(5R)-5-({[4-(But-2-ynyloxy)phenyl]sulfonyl}amino)-6-(hydroxyamino)-6-oxohexyl]quinoline-3-carboxamide] |  |  |  | 7.79 nM |  |
| CC#CCOc1ccc(S(=O)(=O)N[C@H](CCCCNC(=O)c2ccsc2)C(=O)NO)cc1 [Example 365, N-[(5R)-5-({[4-(But-2-ynyloxy)phenyl]sulfonyl}amino)-6-(hydroxyamino)-6-oxohexyl]thiophene-3-carboxamide] |  |  |  | 14.6 nM |  |
| CC#CCOc1ccc(S(=O)(=O)N[C@H](CCCCNC(=O)/C=C/c2ccccc2)C(=O)NO)cc1 [Example 366, (E)-N-[(5R)-5-({[4-(But-2-ynyloxy)phenyl]sulfonyl}amino)-6-(hydroxyamino)-6-oxohexyl]-3-phenylprop-2-enamide] |  |  |  | 106 nM |  |
| CC#CCOc1ccc(S(=O)(=O)N[C@H](CCCNC(=O)c2cccs2)C(=O)NO)cc1 [Example 368, (4R)-4-({[4-(but-2-ynyloxy)Phenyl]sulfonyl}amino)-5-(hydroxyamino)-5-oxopentylithiophene-2-carboxamide] |  |  |  | 151 nM |  |
| CC#CCOc1ccc(S(=O)(=O)N[C@H](CCCNC(=O)NCC)C(=O)NO)cc1 [Example 369] |  |  |  | 14.2 nM |  |
| CC#CCOc1ccc(S(=O)(=O)N[C@H](CCCNC(=O)Nc2ccccc2)C(=O)NO)cc1 [Example 370, (2R)-5-[(Anilinocarbonyl)amino]-2-({[4-(but-2-ynyloxy)phenyl]sulfonyl}amino)-N-hydroxypentanamide] |  |  |  | 2.4 nM |  |
| CC#CCOc1ccc(S(=O)(=O)N[C@H](CCCNC(=O)OCCCCCCCC)C(=O)NO)cc1 [Example 371, Octyl(4R)-4-({[4-(but-2-ynyloxy)phenyl]sulfonyl}amino)-5-(hydroxyamino)-5-oxopentylcarbamate] |  |  |  | 377 nM |  |
| CC#CCOc1ccc(S(=O)(=O)N[C@H](CCCNC(=O)Oc2ccc(OC)cc2)C(=O)NO)cc1 [Example 372, 4-Methoxyphenyl(4R)-4-({[4-(but-2-ynyloxy)phenyl]sulfonyl}amino)-5-(hydroxyamino)-5-oxopentylcarbamate] |  |  |  |  | IC50 [1, 3]: 8.4 nM |
| CC#CCOc1ccc(S(=O)(=O)N[C@H](CCCNC(=O)N(CC)CC)C(=O)NO)cc1 [Example 373] |  |  |  | 16.9 nM |  |
| CC#CCOc1ccc(S(=O)(=O)N[C@H](CCCNC(=O)N(C)c2ccccc2)C(=O)NO)cc1 [Example 374, (2R)-2-({[4-(but-2-ynyloxy)Phenyl]sulfonyl}amino)-N-hydroxy-5-{[(methylanilino)carbonyl]amino}pentanamide] |  |  |  | 18.2 nM |  |
| CC#CCOc1ccc(S(=O)(=O)N[C@H](CCCNS(=O)(=O)c2cn(C)cn2)C(=O)NO)cc1 [Example 375, (2R)-2-({[4-(but-2-ynyloxy)Phenyl]sulfonyl}amino)-N-hydroxy-5-{[(1-methyl-1H-imidazol-4-yl)sulfonyl]amino}pentanamide] |  |  |  | 24.6 nM |  |
| CC#CCOc1ccc(S(=O)(=O)N[C@H](CCCNC(=O)CN2CCOCC2)C(=O)NO)cc1 [Example 376, (2R)-2-({[4-(but-2-ynyloxy)Phenyl]sulfonyl}amino)-N-hydroxy-5-[(2-morpholin-4-ylacetyl)amino]pentanamide] |  |  |  | 21.9 nM |  |
| CC#CCOc1ccc(S(=O)(=O)N[C@H](CCCNC(=O)CN2CCN(C)CC2)C(=O)NO)cc1 [Example 377, (2R)-2-({[4-(but-2-ynyloxy)Phenyl]sulfonyl}amino)-N-hydroxy-5-{[2-(4-methylpiperazin-1-yl)acetyl]amino}pentanamide] |  |  |  | 26.5 nM |  |
| CC#CCOc1ccc(S(=O)(=O)N[C@H](CCCNC(=O)CNCc2ccccc2)C(=O)NO)cc1 [Example 378, (2R)-5-{[2-(Benzylamino)acetyl]amino}-2-({[4-(but-2-ynyloxy)phenyl]sulfonyl}amino)-N-hydroxypentanamide] |  |  |  | 22.8 nM |  |
| (2R)-2-({[4-(But-2-ynyloxy)phenyl]sulfonyl}amino)-5-{[2-(3,4-dichlorophenyl)acetyl]amino}-N-hydroxypentanamide [Example 336] |  |  |  |  | IC50 [1, 3]: 6.11 nM |
